Measurements reported in ChEMBL document CHEMBL4177599, “The antitubercular activity of various nitro(triazole/imidazole)-based compounds” (Bioorg Med Chem, 2017).
Converted amounts (≈) assume the structure as drawn.

Tests used:
[1] = test system: Mycobacterium tuberculosis; assay: Antitubercular activity against luxABCDE expressing Mycobacterium tuberculosis H37Rv infected in mouse J774 macrophages assessed as log reduction in bacterial colonies at 30 uM measured after 4 days under aerobic condition by luminescence assay; format: functional
[2] = test system: Mycobacterium tuberculosis; assay: Antitubercular activity against luxABCDE expressing Mycobacterium tuberculosis H37Rv infected in human THP1 cells measured after 3 days by luminescence assay; format: functional, organism-based; conditions: THP-1, 72 h
[3] = test system: Mycobacterium tuberculosis; assay: Antitubercular activity against Mycobacterium tuberculosis H37Rv ATCC 27294 after 5 days under aerobic condition; format: functional, organism-based; conditions: for IC50 / IC90 / MIC: H37Rv ATCC 27294, 120 h
[4] = test system: Mycobacterium tuberculosis; assay: Antitubercular activity against luxABCDE expressing Mycobacterium tuberculosis H37Rv infected in mouse J774 macrophages assessed as log reduction in bacterial colonies at 2.6 uM measured after 4 days under aerobic condition by luminescence assay; format: functional
[5] = Apparent permeability of the compound across apical side to basolateral side in human Caco2 cells monolayer at 10 uM after 1 hr by LC-MS/MS analysis; format: ADME, cell-based; conditions: Caco-2
[6] = in vitro; conditions: human, THP1 cells
Description: Selectivity index, ratio of IC50 for human THP1 cells to IC50 for Mycobacterium tuberculosis H37Rv under aerobic condition

[7] = Intrinsic clearance in human liver S9 microsomes at 1 uM in presence of NADPH by LC-MS/MS analysis; format: ADME, S9 microsome; conditions: read-out: CLH
[8] = Apparent permeability of the compound across basolateral side to apical side in human Caco2 cells monolayer at 10 uM after 1 hr by LC-MS/MS analysis; format: ADME, cell-based; conditions: Caco-2
[9] = test system: L6; assay: Cytotoxicity against rat L6 cells after 2 days by CellTiter-Glo luminescent cell viability assay; format: ADME, cell-based; conditions: L6, 48 h
[10] = in vitro; conditions: human, Caco-2
Description: (§1) Apparent permeability of the compound across apical side to basolateral side in human Caco2 cells monolayer at 10 uM after 2 hrs by LC-MS/MS analysis

[11] = Half life in human liver S9 microsomes at 1 uM in presence of NADPH by LC-MS/MS analysis
[12] = in vitro; conditions: human, Caco-2; remark: listed apart in the source
Description: (§2) Apparent permeability of the compound across basolateral side to apical side in human Caco2 cells monolayer at 10 uM after 2 hrs by LC-MS/MS analysis

[13] = test system: THP-1; assay: Cytotoxicity against human THP1 cells after 3 days by luminescence assay; format: cell-based; conditions: THP-1, 72 h
[14] = Half life in human liver S9 microsomes at 1 uM in absence of NADPH by LC-MS/MS analysis
[15] = in vitro; conditions: human, Caco-2; remark: listed apart in the source
Description: Efflux ratio of apparent permeability from basolateral to apical over apical to basolateral side in human Caco2 cells monolayer at 10 uM after 1 hr by LC-MS/MS analysis

[16] = test system: Mycobacterium tuberculosis; assay: Bactericidal activity against Mycobacterium tuberculosis H37Rv ATCC 27294 assessed as concentration required for 2 log kill after 21 days under aerobic condition by colony forming assay; format: functional; conditions: for MBC: H37Rv ATCC 27294, 504 h
[17] = Fraction unbound in human plasma at 5 uM after 4 hrs by LC-MS/MS analysis; format: ADME, cell-free
[18] = Intrinsic clearance in human liver S9 microsomes at 1 uM in absence of NADPH by LC-MS/MS analysis; format: ADME, S9 microsome; conditions: read-out: CLH
[19] = Protein binding in human plasma at 5 uM after 4 hrs by LC-MS/MS analysis
[20] = test system: HepG2; assay: Cytotoxicity against human HepG2 cells at 100 uM after 3 days by CellTiter-Glo luminescent cell viability assay; format: cell-based; conditions: HepG2, 72 h
[21] = in vitro; conditions: human, Caco-2; remark: listed apart in the source
Description: Efflux ratio of apparent permeability from basolateral to apical over apical to basolateral side in human Caco2 cells monolayer at 10 uM after 2 hrs by LC-MS/MS analysis

[22] = test system: Mycobacterium tuberculosis; assay: Antitubercular activity against Mycobacterium tuberculosis H37Rv ATCC 27294 after 10 days under low oxygen condition followed by incubation under aerobic condition for 28 hrs by LORA; format: functional, organism-based
[23] = test system: Vero; assay: Cytotoxicity against African green monkey Vero cells after 2 days by CellTiter-Glo luminescent cell viability assay; format: ADME, cell-based; conditions: Chlorocebus sabaeus, 48 h
[24] = human, caco-2, 2 h, 10 µM
Description: as §2

[25] = human, caco-2, 2 h, 10 µM; remark: listed apart in the source
Description: as §1

[26] = test system: Mycobacterium tuberculosis; assay: Antitubercular activity against luxABCDE expressing Mycobacterium tuberculosis H37Rv infected in mouse J774 macrophages assessed as log reduction in bacterial colonies at 20 uM measured after 4 days under aerobic condition by luminescence assay; format: functional
[27] = test system: Mycobacterium tuberculosis; assay: Antitubercular activity against luxABCDE expressing Mycobacterium tuberculosis H37Rv infected in mouse J774 macrophages assessed as log reduction in bacterial colonies at 7.2 uM measured after 4 days under aerobic condition by luminescence assay; format: functional
[28] = test system: Mycobacterium tuberculosis; assay: Potency index, ratio of compound MIC to metronidazole MIC for antitubercular activity against Mycobacterium tuberculosis H37Rv ATCC 27294 under low oxygen condition; format: functional
[29] = test system: Mycobacterium tuberculosis; assay: Potency index, ratio of compound MIC to ethambutol MIC for antitubercular activity against Mycobacterium tuberculosis H37Rv ATCC 27294 under aerobic condition; format: functional
[30] = test system: Mycobacterium tuberculosis; assay: Antitubercular activity against luxABCDE expressing Mycobacterium tuberculosis H37Rv infected in mouse J774 macrophages assessed as log reduction in bacterial colonies at 10.9 uM measured after 4 days under aerobic condition by luminescence assay; format: functional
[31] = Solubility of compound in Middlebrook 7H9 broth media at pH 6.4 at 200 uM after 90 mins by UV-VIS spectrophotometric method; format: physicochemical; conditions: buffer, pH 6.4, 1.5 h

Row | Compound | IC50 [2] [µM] | IC90 [2] [µM] | IC50 [3] [µM] | IC90 [3] [µM] | MIC [3] [µM] | Papp B→A at 1 h, 10 µM [8] [×10⁻⁶ cm/s] | IC50 [9] [µM] | Papp A→B at 2 h, 10 µM [10] [×10⁻⁶ cm/s] | half-life at 1 µM [11] [h] | Papp B→A at 2 h, 10 µM [12] [×10⁻⁶ cm/s] | half-life at 1 µM [14] [h] | efflux ratio at 1 h, 10 µM [15] | MBC [16] [µM] | fraction unbound at 4 h, 5 µM [17] | fraction unbound at 4 h, 5 µM [19] | IC50 [20] [µM] | efflux ratio at 2 h, 10 µM [21] | IC50 [22] [µM] | IC90 [22] [µM] | MIC [22] [µM] | also measured
1 | NNC(=O)c1ccncc1 [ISONIAZID] | 0.19 | 0.24 | 0.131 | 0.2 | 0.313 (≈ 0.0429 µg/mL) | – | – | – | – | – | – | – | – | – | – | – | – | – | – | – | log(activity) [1]: 2.7; log(activity) [4]: 2.6
2 | O=C(CCn1cnc([N+](=O)[O-])n1)Nc1cccc(-c2ccccc2)c1 | 2.3 | 4.1 | 3.6 to 6.1 | 6.8 to 7.1 | 6.8 to 8.4 (≈ 2.29 to 2.83 µg/mL) | 17.5 | 36 | 18 | > 3 | 7 | > 3 | 0.79 | 6.8 (≈ 2.29 µg/mL) | 0.033 | 0.042 | > 100 | 0.39 | 7.8 | 44 | > 200 | Papp A→B at 1 h, 10 µM [5]: 22.2 ×10⁻⁶ cm/s; selectivity ratio [6]: > 10; microsomal CLint at 1 µM [7]: < 12.8 µL/min/mg; IC50 [13]: > 50 µM; Activity ([16]; TDE = time-dependent effect): Tde; microsomal CLint at 1 µM [18]: < 12.8 µL/min/mg; Activity ([3]; TDE = time-dependent effect): Tde
3 | O=C(Cn1cnc([N+](=O)[O-])n1)Nc1nc(-c2ccc(F)c(F)c2)cs1 | – | – | 27 | 39 | 37 (≈ 13.6 µg/mL) | – | – | – | > 3 | – | > 3 | – | 20 (≈ 7.33 µg/mL) | – | 0.002 | 78 | – | 8.7 | 39 | > 200 | IC50 [23]: 55 µM; Papp [24]: 19.9 ×10⁻⁶ cm/s; Papp [25]: 37.7 ×10⁻⁶ cm/s; log(activity) [26]: 2.4
4 | O=C(NCCCCn1cnc([N+](=O)[O-])n1)c1sc2ccccc2c1Cl | – | – | 4 | 6.4 | 6.1 (≈ 2.32 µg/mL) | – | > 264 | – | – | – | – | – | 7.2 (≈ 2.73 µg/mL) | – | – | – | – | 35.5 | 61.4 | 21.5 (≈ 8.17 µg/mL) | IC50 [23]: > 100 µM; log(activity) [27]: 2.2; Ratio [28]: 6 - 9
5 | O=C(CCn1cnc([N+](=O)[O-])n1)Nc1cccc(OCc2ccccc2)c1 | 1.3 | 2.9 | 1.7 to 3.2 | 2.8 to 3.6 | 3 to 4.1 (≈ 1.1 to 1.51 µg/mL) | 17.6 | 40 | 15.8 | 2.07 | 10.5 | > 3 | 0.79 | 0.75 (≈ 0.276 µg/mL) | 0.042 | 0.033 | > 100 | 0.67 | 9.2 | 41 | > 200 | Papp A→B at 1 h, 10 µM [5]: 22.2 ×10⁻⁶ cm/s; selectivity ratio [6]: > 10; microsomal CLint at 1 µM [7]: 18.7 µL/min/mg; IC50 [13]: > 50 µM; Activity [16]: Dose-dependent effect; microsomal CLint at 1 µM [18]: < 12.8 µL/min/mg; Activity [3]: Dose-dependent effect; Ratio [29]: 2
6 | CC(C)NCC(O)COc1cccc2ccccc12 (stereo unspecified) [PROPRANOLOL] | – | – | – | – | – | 43.3 | – | 8.8 to 25.4 | – | 21.1 to 27.3 | – | 2.5 | – | 0.244 | 0.199 | – | 0.83 to 3.1 | – | – | – | –
7 | O=C(NCCCCn1cnc([N+](=O)[O-])n1)c1nc2ccccc2s1 | – | – | 4.9 | 7.4 | 6.7 (≈ 2.32 µg/mL) | – | – | – | – | – | – | – | 10.9 (≈ 3.78 µg/mL) | – | – | – | – | 26 | 29.2 | 23.4 (≈ 8.11 µg/mL) | IC50 [23]: > 100 µM; log(activity) [30]: 2.4; Ratio [28]: 6 - 9; solubility [31]: Soluble
